Results on 2 compounds are retold here after patent US10092621B2 (priority 2014, dated 2018).

Marks after values point to notes of the source that are not given here.

The subject of experiment [1] is intensive care unit patients with severe septic shock. The conditions noted are these: esmolol group; […] in the control group; cited from earlier work.
In experiment [2] the test system is healthy volunteers. Put plainly: Phase 1 MAD study: gastric emptying by scintigraphic imaging. It is filed as in vivo, human. The conditions noted are these: for Gastric Emptying Day 1 Improvement Over Baseline T25% / Gastric Emptying Day 1 Improvement Over Baseline T50%: single dose Day 1; for acceleration of liquid meal emptying (GET50) vs pre-dosing baseline: TID. The method, then:
Healthy male and female volunteers aged 18 to 55 years participated in the trial. […] The doses studied were SAD: 600, 1200, and 900 μg/kg and MAD: 300, 150, and 80 μg/kg q8H for seven days.

Experiment [3] relates to healthy volunteers. In words: Phase 1 SAD/MAD study: growth hormone levels. It is filed as in vivo, human. The conditions noted are these: for GH level spike: 150 μg/kg TID. The method, then:
A randomized, double-blind, placebo-controlled, single and multiple ascending IV dose (SAD and MAD), sequential-group study to assess the safety, tolerability, PK, and PD of ulimorelin in healthy subjects was initiated and conducted as follows.
Levels on Day 1 were meaningfully greater than those seen in placebo subjects at any timepoint (pooled placebo mean GH levels were 3.2 μg/L and ranged from about 0.1 to 11 μg/L). Over time, the spikes in GH levels diminished but remained measureable and within or slightly greater than the expected physiological range of the assay (0-0.8 μg/L for males and 0-8 μg/L for females).

The test system of experiment [4] is diabetic gastroparesis patients. The conditions noted are these: cited from earlier work.
Experiment [5] concerns patients with post-operative ileus. The conditions noted are these: Phase 2, once daily dosing for up to 7 days; cited from earlier work.

In the case of `COC(=O)CCc1ccc(OCC(O)CNC(C)C)cc1` (centres unmarked) [esmolol], in experiment [1], the twenty-eight day mortality is 49.4%.
Regarding ulimorelin, the results for the “Gastric Emptying Day 4 Improvement Over Baseline T25%” value with healthy volunteers [2] (80 μg/kg q8H), in the experiment with healthy volunteers [2] (150 μg/kg q8H) and in the experiment on healthy volunteers [2] (300 μg/kg q8H) were 35%, 25% and 31%, respectively. Besides, the “Gastric Emptying Day 4 Improvement Over Baseline T50%” value with healthy volunteers [2] (80 μg/kg q8H) is 26%; with healthy volunteers [2] (150 μg/kg q8H), 23%*; with healthy volunteers [2] (300 μg/kg q8H), 27%*. Further, the “Gastric Emptying Day 1 Improvement Over Baseline T25%” value is given as 30% in the experiment with healthy volunteers [2] (80 μg/kg), 45%* in the experiment on healthy volunteers [2] (150 μg/kg) and 54%* in the experiment with healthy volunteers [2] (300 μg/kg). The “Gastric Emptying Day 1 Improvement Over Baseline T50%” value is given as 14% in the experiment with healthy volunteers [2] (80 μg/kg), 34%* with healthy volunteers [2] (150 μg/kg) and 46%* in the experiment with healthy volunteers [2] (300 μg/kg). The “acceleration of liquid meal emptying (GET50) vs pre-dosing baseline” value is given as “greater than 30%” in the experiment on healthy volunteers [2] (Day 1, both treatment groups) and greater than 20% with healthy volunteers [2] (Day 4, both treatment groups). Besides, the “Mean Max GH” value is given as 18.8 μ/L in the experiment on healthy volunteers [3] (Female, 150 μg/kg, Day 1); 10.7 μ/L in the experiment with healthy volunteers [3] (Female, 150 μg/kg, Day 4); 6.2 μ/L in the experiment on healthy volunteers [3] (Female, 150 μg/kg, Day 7); 41.5 μ/L with healthy volunteers [3] (Female, 300 μg/kg, Day 1); 31.5 μ/L in the experiment on healthy volunteers [3] (Female, 300 μg/kg, Day 4); 77.9 μ/L with healthy volunteers [3] (Female, 600 μg/kg, Day 1). Besides, the “Mean Max GH” value was found to be 83.4 μ/L in the experiment with healthy volunteers [3] (Female, 900 μg/kg, Day 1); 76.0 μ/L with healthy volunteers [3] (Female, 1200 μg/kg, Day 1); 11.4 µg/L in the experiment on healthy volunteers [3] (Male, 150 μg/kg, Day 1); 2.4 µg/L in the experiment with healthy volunteers [3] (Male, 150 μg/kg, Day 4); 1.7 µg/L in the experiment with healthy volunteers [3] (Male, 150 μg/kg, Day 7); 18.7 µg/L with healthy volunteers [3] (Male, 300 μg/kg, Day 1). Moreover, the “Mean Max GH” value with healthy volunteers [3] (Male, 300 μg/kg, Day 4) was 4.0 µg/L; with healthy volunteers [3] (Male, 300 μg/kg, Day 7), 3.0 µg/L; in the experiment with healthy volunteers [3] (Male, 600 μg/kg, Day 1), 41.7 µg/L; in the experiment with healthy volunteers [3] (Male, 900 μg/kg, Day 1), 79.7 µg/L; in the experiment with healthy volunteers [3] (Male, 1200 μg/kg, Day 1) it was 53.0 µg/L; in the experiment on healthy volunteers [3] (Person, 300 μg/kg, Day 7, n = 1), 11.3* μ/L. The GH level spike in the experiment on healthy volunteers [3] (females, Day 1) was roughly 19 µg/L; in the experiment on healthy volunteers [3] (males, Day 1) it was roughly 11 µg/L. Moreover, the gastric emptying result in experiment [4] (Phase 2, 10 patients with diabetic gastroparesis, 30 min IV infusion once daily) was “accelerated gastric emptying of solid and liquid food”. The GCSI scores entry in experiment [4] (additional Phase 2 study of diabetic gastroparesis patients) is “improvements in GCSI Loss of Appetite and Vomiting scores”. In experiment [5], the “time to first bowel movement (BM)” value was “shortened time to first bowel movement”.
